# Patent US11000033B2, “Ketone or oxime compound, and herbicide” (NISSAN CHEMICAL CORPORATION, priority 2014, dated 2021)
# Experiments:
# Format in all cases: in vivo
# [1] = tested on: Monochoria vaginalis; experiment: Test Example 2: herbicidal activity, application during weed generation in submerged conditions (symbol C); conditions: Table 23; application herbicide amount 320 g/ha; grade 0-5 by criteria of Test Example 1
# How it was run: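 Compound was applied as a water-diluted emulsion into the standing water of flooded pots (4 cm) once co-sown weeds reached one to two leaves. Greenhouse temperature was 25° C. to 30° C., soil was alluvial, and each species was rated visually after 3 weeks.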
# [2] = tested on: Avena fatua; experiment: Test Example 4: herbicidal effect by soil treatment (symbol I); conditions: 320 g/ha
# How it was run: (§1)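 Seeds were sown in sterilized diluvial soil, covered with about 1.5 cm of soil, and the soil surface was sprayed with a water-diluted emulsion of the compound at a predetermined rate. Plants grew in a greenhouse at 25° C. to 30° C.; effects were scored visually 3 weeks after application.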
# [3] = tested on: Setaria viridis; experiment: Test Example 5: herbicidal effect by foliage application, plastic box (symbol G); conditions: 320 g/ha, 3 weeks after application
# How it was run: (§2)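 Visual herbicidal score, taken three weeks post-application, of seedlings sprayed on the foliage with water-diluted emulsion at a predetermined amount; plants were 14 days old, greenhouse-raised at 25° C. to 30° C.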
# [4] = tested on: transplanted rice plant; experiment: Test Example 1: effect on crop, application before weed generation in submerged conditions (symbol a); conditions: application herbicide amount 320 g/ha
# How it was run: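 Alluvial soil pots flooded to 4 cm water, sown with Echinochloa oryzacola, Scirpus juncoides and Monochoria vaginalis, then transplanted with 2.5 leaf stage rice seedlings; pre-emergence application. Greenhouse 25° C. to 30° C.; scored 0–5 by herbicidal ratio 3 weeks after application.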
# [5] = tested on: Chenopodium album; experiment: Test Example 4: herbicidal effect by soil treatment (symbol O); conditions: 320 g/ha
# How it was run: as §1
# [6] = tested on: beet; experiment: Test Example 5: effect on crop by foliage application, plastic box (symbol f); conditions: 320 g/ha, 3 weeks after application
# How it was run: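 Foliage-application test plants come from spot sowing in sterilized diluvial soil under a soil layer of about 1.5 cm, grown at 25° C. to 30° C. in a greenhouse.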
# [7] = tested on: Digitaria ciliaris; experiment: Test Example 5: herbicidal effect by foliage application, plastic box (symbol F); conditions: 320 g/ha, 3 weeks after application
# How it was run: as §2
# [8] = tested on: rice; experiment: Test Example 4: effect on crop by soil treatment (symbol b); conditions: 320 g/ha
# How it was run: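 Greenhouse culture at 25° C. to 30° C. followed sowing of seed in spots on sterilized diluvial soil with a soil cover close to 1.5 cm thick.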
# [9] = tested on: Alopecurus myosuroides; experiment: Test Example 4: herbicidal effect by soil treatment (symbol J); conditions: 320 g/ha
# How it was run: as §1
# [10] = tested on: Leptochloa chinensis; experiment: Test Example 3: herbicidal effect by foliage application, Wagner pot (symbol D); conditions: application herbicide amount 320 g/ha
# How it was run: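 In a shallow-flooded alluvial soil system held at 25–30 °C, plants including rice grew for 14 days and were then sprayed over the foliage with emulsion diluted to a fixed herbicide amount. Visual rating followed at 3 weeks.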
# [11] = tested on: Galium spurium; experiment: Test Example 4: herbicidal effect by soil treatment (symbol Q); conditions: 320 g/ha
# How it was run: as §1
SMILES,"Herbicidal effect grade, C: Monochoria vaginalis [1]","I: Avena fatua, herbicidal effect grade [2]","G: Setaria viridis, herbicidal effect (criteria 0-5) [3]","Effect grade on crop, a: transplanted rice plant [4]","O: Chenopodium album, herbicidal effect grade [5]","f: beet, effect on crop (criteria 0-5) [6]","F: Digitaria ciliaris, herbicidal effect (criteria 0-5) [7]","b: directly sowed rice plant, effect grade on crop [8]","J: Alopecurus myosuroides, herbicidal effect grade [9]","herbicidal effect on D (Leptochloa chinensis), grade 0-5 [10]","Q: Galium spurium, herbicidal effect grade [11]"
CON=C(C)CC1CC(OS(=O)(=O)CC[Si](C)(C)C)=C(c2c(C)cc(C)cc2C)C1=O (stereo not drawn) [1-144],2 (Herbicidal ratio of 20% or higher and lower than 40%),2 (Herbicidal ratio of 20% or higher and lower than 40%),5 (Herbicidal ratio of 90% or more (almost completely withered)),5 (Herbicidal ratio of 90% or more (almost completely withered)),0 (Herbicidal ratio of 5% or lower (almost no effect)),2 (Herbicidal ratio of 20% or higher and lower than 40%),5 (Herbicidal ratio of 90% or more (almost completely withered)),5 (Herbicidal ratio of 90% or more (almost completely withered)),4 (Herbicidal ratio of 70% or higher and lower than 90%),5 (Herbicidal ratio of 90% or more (almost completely withered)),0 (Herbicidal ratio of 5% or lower (almost no effect))
CON=C(C)CC1CC(OC(=O)OCc2ccccc2)=C(c2c(C)cc(C)cc2C)C1=O (stereo not drawn) [1-145],3 (Herbicidal ratio of 40% or higher and lower than 70%),4 (Herbicidal ratio of 70% or higher and lower than 90%),5 (Herbicidal ratio of 90% or more (almost completely withered)),5 (Herbicidal ratio of 90% or more (almost completely withered)),0 (Herbicidal ratio of 5% or lower (almost no effect)),2 (Herbicidal ratio of 20% or higher and lower than 40%),5 (Herbicidal ratio of 90% or more (almost completely withered)),5 (Herbicidal ratio of 90% or more (almost completely withered)),5 (Herbicidal ratio of 90% or more (almost completely withered)),5 (Herbicidal ratio of 90% or more (almost completely withered)),0 (Herbicidal ratio of 5% or lower (almost no effect))
C=CCOC(=O)OC1=C(c2c(C)cc(C)cc2C)C(=O)C(CC(C)=NOC)C1 (stereo not drawn) [1-146],4 (Herbicidal ratio of 70% or higher and lower than 90%),4 (Herbicidal ratio of 70% or higher and lower than 90%),5 (Herbicidal ratio of 90% or more (almost completely withered)),5 (Herbicidal ratio of 90% or more (almost completely withered)),0 (Herbicidal ratio of 5% or lower (almost no effect)),4 (Herbicidal ratio of 70% or higher and lower than 90%),5 (Herbicidal ratio of 90% or more (almost completely withered)),5 (Herbicidal ratio of 90% or more (almost completely withered)),5 (Herbicidal ratio of 90% or more (almost completely withered)),5 (Herbicidal ratio of 90% or more (almost completely withered)),0 (Herbicidal ratio of 5% or lower (almost no effect))
COCCOC(=O)OC1=C(c2c(C)cc(C)cc2C)C(=O)C(CC(C)=NOC)C1 (stereo not drawn) [1-147],3 (Herbicidal ratio of 40% or higher and lower than 70%),5 (Herbicidal ratio of 90% or more (almost completely withered)),5 (Herbicidal ratio of 90% or more (almost completely withered)),5 (Herbicidal ratio of 90% or more (almost completely withered)),0 (Herbicidal ratio of 5% or lower (almost no effect)),3 (Herbicidal ratio of 40% or higher and lower than 70%),5 (Herbicidal ratio of 90% or more (almost completely withered)),5 (Herbicidal ratio of 90% or more (almost completely withered)),5 (Herbicidal ratio of 90% or more (almost completely withered)),5 (Herbicidal ratio of 90% or more (almost completely withered)),0 (Herbicidal ratio of 5% or lower (almost no effect))
CON=C(C)CC1CC(OC(=O)C(C)(C)c2ccc(Cl)cc2)=C(c2c(C)cc(C)cc2C)C1=O (stereo not drawn) [1-148],4 (Herbicidal ratio of 70% or higher and lower than 90%),0 (Herbicidal ratio of 5% or lower (almost no effect)),5 (Herbicidal ratio of 90% or more (almost completely withered)),5 (Herbicidal ratio of 90% or more (almost completely withered)),0 (Herbicidal ratio of 5% or lower (almost no effect)),3 (Herbicidal ratio of 40% or higher and lower than 70%),5 (Herbicidal ratio of 90% or more (almost completely withered)),5 (Herbicidal ratio of 90% or more (almost completely withered)),5 (Herbicidal ratio of 90% or more (almost completely withered)),5 (Herbicidal ratio of 90% or more (almost completely withered)),0 (Herbicidal ratio of 5% or lower (almost no effect))
CON=C(C)CC1CC(OC(=O)N2CCCC2)=C(c2c(C)cc(C)cc2C)C1=O (stereo not drawn) [1-150],1 (Herbicidal ratio of 5% or higher and lower than 20%),2 (Herbicidal ratio of 20% or higher and lower than 40%),4 (Herbicidal ratio of 70% or higher and lower than 90%),5 (Herbicidal ratio of 90% or more (almost completely withered)),0 (Herbicidal ratio of 5% or lower (almost no effect)),0 (Herbicidal ratio of 5% or lower (almost no effect)),5 (Herbicidal ratio of 90% or more (almost completely withered)),0 (Herbicidal ratio of 5% or lower (almost no effect)),5 (Herbicidal ratio of 90% or more (almost completely withered)),4 (Herbicidal ratio of 70% or higher and lower than 90%),0 (Herbicidal ratio of 5% or lower (almost no effect))
